From patent publication US8486381B2, “Methods of modulating intestinal fluid balance” (Amgen Inc., priority 2005, dated 2013)

Test system: cyclic GMP
Assay: Secretagogue-stimulated cyclic GMP accumulation in colonic crypt cell suspensions
Format: cell-based

`[Ca+2]` [Ca^2+] was tested, and the “Effect on Guanylin or STa induced cyclic GMP production” value was “attenuates”.
